Source: patent US9567304B2, “Quinazolinedione derivative” (Chugai Seiyaku Kabushiki Kaisha, priority 2012, dated 2017)

System: human endometrial cancer cell line MFE-280
Experiment: Measurement of antitumor effect in MFE-280 cancer-bearing mice
Format: in vivo
Conditions: 200 mg/kg, orally once daily, MFE-280 subcutaneous xenograft in BALB/c nude mice, 11th day after start of administration

## CCS(=O)(=O)c1ccc(Cl)cc1Cn1c(=O)[nH]c2c(Cl)c(CN3CCNCC3)c(C(F)(F)F)cc2c1=O [Compound F-1, 8-Chloro-3-(5-chloro-2-ethanesulfonyl-benzyl)-7-piperazin-1-ylmethyl-6-trifluoromethyl-1H-quinazoline-2,4-dione]
  Antitumor effect TGI after 11 days (%): 61%
